The values that follow come from ChEMBL document CHEMBL4823287, “Design and synthesis of novel 5-alkynyl pyrimidine nucleosides derivatives: Influence of C-6-substituent on antituberculosis activity” (2021).

Values after ≈ are worked out from the molar mass of the structure shown.

Holding throughout (format): functional
For assay [1], the system named is Mycobacterium tuberculosis. In words: Antimycobacterial activity against Mycobacterium tuberculosis H37Ra assessed as inhibition of bacterial growth measured by microplate alamar blue assay. In general terms: Resazurin is reduced to fluorescent resorufin, in cell work by metabolically active cells.
Assay [2] relates to Mycobacterium tuberculosis. Description: Antimycobacterial activity against Mycobacterium tuberculosis H37Ra assessed as inhibition of bacterial growth at 100 ug/ml measured by microplate alamar blue assay.
Assay [3] relates to Mycobacterium tuberculosis. Description: Antimycobacterial activity against Mycobacterium tuberculosis H37Ra assessed as inhibition of bacterial growth at 50 ug/ml measured by microplate alamar blue assay.
Assay [4] deals with Mycobacterium tuberculosis. In words: Antimycobacterial activity against Mycobacterium tuberculosis H37Ra assessed as inhibition of bacterial growth at 10 ug/ml measured by microplate alamar blue assay.
In assay [5] the test system is Mycobacterium tuberculosis. In words: Antimycobacterial activity against Mycobacterium tuberculosis H37Ra assessed as inhibition of bacterial growth at 1 to 5 ug/ml measured by microplate alamar blue assay. The following applies: dose 1-5 µg/ml; at 1 to 5 µg/mL.
Assay [6] deals with Mycobacterium tuberculosis. In words: Antimycobacterial activity against Mycobacterium tuberculosis H37Ra assessed as inhibition of bacterial growth at 25 ug/ml measured by microplate alamar blue assay.
The test system of assay [7] is Mycobacterium tuberculosis. Description: Antimycobacterial activity against Mycobacterium tuberculosis H37Ra assessed as inhibition of bacterial growth at 1 ug/ml measured by microplate alamar blue assay.
Assay [8] concerns Mycobacterium tuberculosis. Description: Antimycobacterial activity against Mycobacterium tuberculosis H37Ra assessed as inhibition of bacterial growth at 5 ug/ml measured by microplate alamar blue assay.

In the case of `CCCCCCC#Cc1c(C)n([C@@H]2O[C@H](CO)[C@@H](O)[C@H]2O)c(=O)[nH]c1=O`, the MIC50 in assay [1] is below 50 µg/mL. Also, the inhibition at 100 µg/mL in assay [2] amounted to 90%. In addition, in assay [3], the inhibition at 50 µg/mL is 70%.
With `CC#Cc1c(C)n([C@@H]2O[C@H](CO)[C@@H](O)[C@H]2O)c(=O)[nH]c1=O`, in assay [1], the MIC50 turned out to be 50 µg/mL (≈ 169 µM). For the same compound, the inhibition at 10 µg/mL in assay [4] came out at 10%. In assay [2], the inhibition at 100 µg/mL came out at 90%. Besides, in assay [3], the inhibition at 50 µg/mL was 50%.
As for `Cc1c(C#Cc2ccccc2)c(=O)[nH]c(=O)n1[C@@H]1O[C@H](CO)[C@@H](O)[C@H]1O`, the MIC50 in assay [1] turned out to be 2.6 µg/mL (≈ 7.26 µM). Further, in assay [4], the inhibition at 10 µg/mL is 75%. For the same compound, the inhibition at 100 µg/mL in assay [2] came to 90%. The “inhibition (percent inhibition of bacterial growth)” value in assay [5] turned out to be 50%. For the same compound, the inhibition at 50 µg/mL in assay [3] stood at 75%.
As to `Cc1c(C#CCC(C)C)c(=O)[nH]c(=O)n1[C@@H]1O[C@H](CO)[C@@H](O)[C@H]1O`, in assay [1], the MIC50 was found to be 18.1 µg/mL (≈ 53.5 µM). Further, the inhibition at 25 µg/mL in assay [6] stood at 60%. Besides, the “inhibition (percent inhibition of bacterial growth)” value in assay [5] amounted to 10%. The inhibition at 50 µg/mL in assay [3] is 100%.
For the compound `CO[C@H]1/C=C/O[C@@]2(C)Oc3c(C)c(O)c4c(O)c(c(/C=N/N5CCN(C)CC5)c(O)c4c3C2=O)NC(=O)/C(C)=C\C=C\[C@H](C)[C@H](O)[C@@H](C)[C@@H](O)[C@@H](C)[C@H](OC(C)=O)[C@@H]1C` [RIFAMPIN], the MIC50 in assay [1] is 0.7 µg/mL (≈ 0.851 µM). In addition, the inhibition at 1 µg/mL in assay [7] came to 100%.
In the same order, the values of `NNC(=O)c1ccncc1` [ISONIAZID] are 0.8 µg/mL (≈ 5.83 µM) and 100%.
As for `CCCC#Cc1c(C)n([C@@H]2O[C@H](CO)[C@@H](O)[C@H]2O)c(=O)[nH]c1=O`, the MIC50 in assay [1] was below 50 µg/mL. The inhibition at 10 µg/mL in assay [4] is 0%. The inhibition at 100 µg/mL in assay [2] was 90%. Also, the inhibition at 50 µg/mL in assay [3] turned out to be 60%.
Turning to `Cc1c(C#CC2CC2)c(=O)[nH]c(=O)n1[C@@H]1O[C@H](CO)[C@@H](O)[C@H]1O`, the MIC50 in assay [1] amounted to 2.3 µg/mL (≈ 7.14 µM). Besides, the inhibition at 10 µg/mL in assay [4] amounted to 80%. The inhibition at 100 µg/mL in assay [2] is 90%. Also, the “inhibition (percent inhibition of bacterial growth)” value in assay [5] is given as 50%.
Turning to `N[C@@H]1CONC1=O` [CYCLOSERINE], the MIC50 in assay [1] turned out to be 5.2 µg/mL (≈ 50.9 µM). Besides, in assay [4], the inhibition at 10 µg/mL came out at 67%. For the same compound, the inhibition at 5 µg/mL in assay [8] stood at 50%.
For the compound `Cc1c(C#CC2CCCCC2)c(=O)[nH]c(=O)n1[C@@H]1O[C@H](CO)[C@@H](O)[C@H]1O`, the MIC50 in assay [1] amounted to 14.1 µg/mL (≈ 38.7 µM). Moreover, the inhibition at 25 µg/mL in assay [6] stood at 60%. Moreover, the “inhibition (percent inhibition of bacterial growth)” value in assay [5] is listed as 10%. The inhibition at 50 µg/mL in assay [3] was found to be 100%.
On to `Cc1c(C#CC(O)c2ccccc2)c(=O)[nH]c(=O)n1[C@@H]1O[C@H](CO)[C@@H](O)[C@H]1O` (stereo partly specified), for which the MIC50 in assay [1] stood at 0.6 µg/mL (≈ 1.54 µM). In addition, in assay [7], the inhibition at 1 µg/mL came to 100%.
Regarding `CCC#Cc1c(C)n([C@@H]2O[C@H](CO)[C@@H](O)[C@H]2O)c(=O)[nH]c1=O`, in assay [1], the MIC50 was 50 µg/mL (≈ 161 µM). The inhibition at 10 µg/mL in assay [4] is 10%. The inhibition at 100 µg/mL in assay [2] came to 90%. Moreover, the inhibition at 50 µg/mL in assay [3] turned out to be 50%.
For the compound `Cc1c(C#C[Si](C)(C)C)c(=O)[nH]c(=O)n1[C@@H]1O[C@H](CO)[C@@H](O)[C@H]1O`, the inhibition at 100 µg/mL in assay [2] came to 0%.
In the case of `CCCCC#Cc1c(C)n([C@@H]2O[C@H](CO)[C@@H](O)[C@H]2O)c(=O)[nH]c1=O`, the MIC50 in assay [1] was determined as 17.7 µg/mL (≈ 52.3 µM). In addition, the inhibition at 25 µg/mL in assay [6] came out at 60%. The “inhibition (percent inhibition of bacterial growth)” value in assay [5] came to 10%. Moreover, the inhibition at 50 µg/mL in assay [3] turned out to be 100%.

A word on the MIC50: it is an inhibitory concentration at the 50% level, which refers to growth in some studies and to a panel of isolates in others. The inhibition is how much of the control response was suppressed.
